# Results taken from patent publication US11795145B2, “Methane-production inhibitor composition and method for inhibiting methane production” (KUMIAI CHEMICAL INDUSTRY CO., LTD., priority 2020, dated 2023).
# What was measured:
# [1] = test system: paddy field soil microorganisms; experiment: Test Example 2: methane-production inhibition test by various methane-production inhibitors in flooded paddy field soil (headspace GC); format: cell-based; conditions: for Methane-production amount (mg/L) 21 days after treatment / Methane-production amount (mg/L) 28 days after treatment: 0.5 mg/kg dry soil; for Methane-production amount (mg/L) 21 days after treatment: 21 days static incubation at 30° C., untreated plot 19.6; for Methane-production amount (mg/L) 28 days after treatment: 28 days static incubation at 30° C., untreated plot 44.3; for Methane-production amount compared to untreated plot: 0.5 mg/kg dry soil treatment
# Procedure: In a glass vial (21.5 mL volume) for headspace analysis, 4.0 g of paddy field soil (provisional specific gravity 1.18 g/cm^3) was weighed, and 8 mL of distilled water was added. In this flooded soil, plots to which 40 μL of acetone solution containing 50 ppm of the compounds listed in Table 2 below were added (0.5 mg/kg dry soil (equivalent to 590 g/ha)), respectively, were provided as Examples 4 to 9. As Comparative Example 2, an untreated plot to which 40 μL of acetone was added was provided. After 100 μL of a culture solution of paddy field soil microorganisms was added to these glass vials, the vials were tightly sealed using septum and aluminum caps, and allowed to stand at 30° C. for static incubation. After 21 and 28 days of incubation treatment, 0.5 mL of gas was collected from a headspace in a glass vial sample using a gas tight syringe and analyzed for methane production by gas chromatography (GC).
# [2] = test system: paddy field soil microorganisms; experiment: Test Example 3: comparative test of methane-production inhibition with existing inhibitor BES in flooded paddy field soil (headspace GC); format: cell-based; conditions: 0.5 mg/kg dry soil; for Methane-production amount (mg/L) 21 days after treatment: 21 days static incubation at 30° C., untreated plot 69.3; for Methane-production amount (mg/L) 28 days after treatment: 28 days static incubation at 30° C., untreated plot 119.2
# Procedure: In a glass vial (21.5 mL volume) for headspace analysis, 4.0 g of paddy field soil (provisional specific gravity 1.18 g/cm^3) was weighed, and 8 mL of distilled water was added. In this flooded soil, a plot to which 20 μL of acetone solution containing 100 ppm of Compound I-1 was added (0.5 mg/kg dry soil (equivalent to 590 g/ha)) is provided as Example 10, a plot to which 20 μL of an aqueous solution containing 100 ppm of BES (a comparative compound) and acetone was added (0.5 mg/kg dry soil) is provided as Comparative Example 3, and an untreated plot to which 20 μL of acetone was added is provided as Comparative Example 4. After 100 μL of a culture solution of paddy field soil microorganisms was added to these glass vials, the vials were tightly sealed using septum and aluminum caps, and allowed to stand at 30° C. for static incubation. After 21 and 28 days of incubation treatment, 0.5 mL of gas was collected from a headspace in a glass vial sample using a gas tight syringe and analyzed for methane production by gas chromatography (GC). The comparative compound, BES (CAS No.: 4263-52-9; 2-Bromoethanesulfonate), is an existing methane-production inhibitor and a product manufactured by Tokyo Chemical Industry Co., Ltd.
# [3] = test system: methane-producing bacteria; conditions: 80 mg/kg; paddy fields during rice cultivation; cited from earlier work
# [4] = test system: dairy cattle; conditions: feed treated with from 40 to 80 mg/kg; cited from earlier work
# [5] = test system: paddy field soil microorganisms; experiment: Test Example 1: methane-production inhibition test by Compound I-1 in flooded paddy field soil (headspace GC); format: cell-based; conditions: for Methane-production amount (mg/L) 21 days after treatment: 21 days static incubation at 30° C., untreated plot 34.0; for Methane-production amount (mg/L) 28 days after treatment: 28 days static incubation at 30° C., untreated plot 38.9
# Procedure: In a glass vial (21.5 mL volume) for headspace analysis, 4.0 g of paddy field soil (provisional specific gravity 1.18 g/cm^3) was weighed, and 8 mL of distilled water was added. In this flooded soil, a plot to which 40 μL of 10 ppm Compound I-1-containing acetone solution was added (0.1 mg/kg dry soil (equivalent to 118 g/ha)) was provided as Example 1, and a plot to which 20 μL of 100 ppm Compound I-1-containing acetone solution was added (0.5 mg/kg dry soil (equivalent to 590 g/ha)) and a plot to which 40 μL of 100 ppm Compound I-1-containing acetone solution was added (1 mg/kg dry soil (equivalent to 1180 g/ha)) were provided as Examples 2 and 3. As Comparative Example 1, an untreated plot to which 40 μL of acetone was added was provided. After 100 μL of a culture solution of paddy field soil microorganisms was added to these glass vials, the vials were tightly sealed using septum and aluminum caps, and allowed to stand at 30° C. for static incubation. After 21 and 28 days of incubation treatment, 0.5 mL of gas was collected from a headspace in a glass vial sample using a gas tight syringe and analyzed for methane production by gas chromatography (GC). The amount treatment (g) per 1 ha was converted according to the OECD Guideline Test No. 307 issued in 2002, based on the provisional specific gravity of the paddy field soil used.
smiles,measurement,setting,value
O=S(=O)(CO)c1ccc(Br)cc1 [Compound I-5],Methane-production amount (mg/L) 21 days after treatment,[1],15.7 mg/L
same,Methane-production amount (mg/L) 28 days after treatment,[1],24.3 mg/L
O=S(=O)(CCl)c1ccc(O)cc1 [Compound I-4],Methane-production amount (mg/L) 21 days after treatment,[1],5.4 mg/L
same,Methane-production amount (mg/L) 28 days after treatment,[1],16.7 mg/L
O=S(=O)(CCl)c1ccc(Br)cc1 [Compound I-3],Methane-production amount (mg/L) 21 days after treatment,[1],5.3 mg/L
same,Methane-production amount (mg/L) 28 days after treatment,[1],14.7 mg/L
O=S(=O)(CCl)Oc1ccc(O)cc1 [Compound I-2],Methane-production amount compared to untreated plot,[1],particularly high reduction effect
same,Methane-production amount (mg/L) 21 days after treatment,[1],2.5 mg/L
same,Methane-production amount (mg/L) 28 days after treatment,[1],4.4 mg/L
"O=S(=O)([O-])CCBr.[Na+] [BES, 2-Bromoethanesulfonate, reference compound]",Methane-production amount compared to untreated plot,[2],reduced
same,Methane-production amount (mg/L) 21 days after treatment,[2],32.9 mg/L
same,Methane-production amount (mg/L) 28 days after treatment,[2],80.5 mg/L
same,Reduction of methane emissions compared to a control area,[3],49%
CS(=O)(=O)Oc1ccc(O)cc1 [Compound I-6],Methane-production amount (mg/L) 21 days after treatment,[1],16.7 mg/L
same,Methane-production amount (mg/L) 28 days after treatment,[1],28.3 mg/L
"O=[N+]([O-])OCCCO [Compound 3-NOP, 3-nitrooxypropanol]",Reduction of methane emissions from dairy cattle,[4],30%
O=C(Oc1ccc(OS(=O)(=O)CCl)cc1)c1ccccc1 [Compound I-1],Methane reduction amount relative to the reduction amount due to the comparative compound,[2],significantly greater
same,Methane-production amount compared to untreated plot,[2],reduced
same,Methane-production amount (mg/L) 21 days after treatment,[2],13.4 mg/L
same,Methane-production amount (mg/L) 28 days after treatment,[2],34.2 mg/L
same,Methane-production amount compared to untreated plot,[1],particularly high reduction effect
same,Methane-production amount (mg/L) 21 days after treatment,[1],2.5 mg/L
same,Methane-production amount (mg/L) 28 days after treatment,[1],3.8 mg/L
same,Methane-production amount compared to untreated plot,[5]; 0.1 mg/kg dry soil (Example 1),reduced
same,Methane-production amount (mg/L) 21 days after treatment,[5]; 0.1 mg/kg dry soil,9.1 mg/L
same,Methane-production amount (mg/L) 28 days after treatment,[5]; 0.1 mg/kg dry soil,21.3 mg/L
same,Methane-production reduction effect compared to untreated plot,[5]; 0.5 mg/kg dry soil and above (Examples 2 and 3),higher reduction effect
same,Methane-production amount (mg/L) 21 days after treatment,[5]; 0.5 mg/kg dry soil,2.8 mg/L
same,Methane-production amount (mg/L) 28 days after treatment,[5]; 0.5 mg/kg dry soil,3.7 mg/L
same,Methane-production amount (mg/L) 21 days after treatment,[5]; 1 mg/kg dry soil,2.5 mg/L
same,Methane-production amount (mg/L) 28 days after treatment,[5]; 1 mg/kg dry soil,3.1 mg/L
